Data from article PMC12566971, “Polyprenylated Acylphloroglucinols from Hypericum rochelii and Hypericum olympicum—Cytotoxic Effects on Non-Tumorigenic Cell Lines and Antibacterial Potential” (Pharmaceuticals, 2025).
Values after ≈ are worked out from the molar mass of the structure shown.

What was measured:
[1] = test system: Streptococcus mutans; assay: MIC and MBC evaluation (broth microdilution, agar plate assay); format: cell-based
Experimental: (§1) The MIC and MBC assessment on the pathogenic bacteria and the candidate probiotic lactic acid bacteria was carried out by the broth microdilution assay (BMD) and the agar plate assay, respectively, as described in [4]. The metabolic (dehydrogenase) activity of the lactic acid bacteria was assessed as described in [4].
(§2) P. aeruginosa PAO1 ATCC 15692 was purchased from the American Type Cell Culture Collection (ATCC, Manassas, VA, USA). S. mutans DSM 20523 was bought from the German Collection of Microorganisms and Cell Cultures (DSMZ GmbH, Braunschweig, Germany). All other bacteria and strains were purchased as described in [4].

[2] = test system: Streptococcus pyogenes; assay: as above; format: cell-based; conditions: for MBC/MIC ratio, S. pyogenes: bactericidal if ≤ 4, bacteriostatic if > 4
Experimental: as §1, §2

[3] = test system: Enterococcus faecalis; assay: as above; format: cell-based; conditions: for MBC/MIC ratio, E. faecalis: bactericidal if ≤ 4, bacteriostatic if > 4
Experimental: as §1, §2

[4] = test system: panel of cancer cell lines; parameters: method as in PMID 39454890; conditions: ref [48]; read-out: IC50 against a panel of cancer cell lines; cited from earlier work
[5] = test system: HT-22 and SH-SY5Y cells; conditions: concentration where viability was restored to about 75%, ref [103]; read-out: Effective concentration 50 (EC50), neuroprotection; cited from earlier work
[6] = test system: Pseudomonas aeruginosa PAO1; assay: MIC and MBC evaluation (broth microdilution, agar plate assay); format: cell-based
Experimental: as §1, §2

[7] = test system: CCL-1; assay: MTT assay for cytotoxicity; format: cell-based, murine
Experimental: (§3) The MTT assay was performed according to Annex C, ISO 10993-5 [56] as in [116]. The panel of non-tumorigenic cell lines consisted of one murine (CCL-1 fibroblasts, which are recommended as a standard for cytotoxicity evaluation in Annex C of ISO 10993-5 [56]) and four human cell lines—HaCaT (immortalized epidermal keratinocytes), HGF (gingival fibroblasts), HEK-293 (embryonic cells from kidney epithelium), and HEPG2 (hepatoblastoma). Although technically a cancer cell line, HEPG2 is non-tumorigenic and retains many hepatocyte-related features in its proteome and a high degree of morphological and functional differentiation, also being a stage one hepatoblastoma.
(§4) CCL-1 was purchased from ATCC and HaCaT and HGF were bought from CLS Cell Lines Service (GmbH, Eppelheim, Germany). HEK-293 and HEPG2 were obtained from DSMZ. The cell culture medium for HaCaT and HEPG2 was Dulbecco’s Modified Eagle Medium (DMEM) with 4.5 g/L glucose (DMEM-HA). For HGF it was DMEM/F-12 (DMEM-12-A, a 1:1 mixture of DMEM and Ham’s F-12 medium). The cell medium for CCL-1 and HEK-293 was Eagle’s Minimum Essential Medium (MEM) (MEM-A). Ten percent heat-inactivated fetal bovine serum (FBS) was added to all media but to the one for the CCL-1 cells, to which 10% heat-inactivated horse serum was added. All media were supplemented with 2 mM L-glutamine and Penicillin/Streptomycin (Pen/Strep, 100×). The cell culture media, sera, and additives were from Capricorn Scientific (Düsseldorf, Germany).
(§5) GraphPad Prism software version 9 (GraphPad Software Inc., San Diego, CA, USA) was used to calculate the IC50 values from the MTT assays as in [116], as well as the MTC values, and the ELISA standard curves. The MTC values are, according to ISO 10993-5, the maximum concentration at which at least 70% of the cells are viable (nonlin fit, range).

[8] = test system: Staphylococcus aureus; conditions: ref [4],[29]; cited from earlier work
[9] = test system: HaCaT; assay: MTT assay for cytotoxicity; format: cell-based, human
Experimental: as §3, §4, §5

[10] = test system: HEPG2; assay: MTT assay for cytotoxicity; format: cell-based, human
Experimental: as §3, §4, §5

[11] = test system: Streptococcus pyogenes; conditions: ref [4],[29]; cited from earlier work
[12] = test system: Staphylococcus aureus; assay: MIC and MBC evaluation (broth microdilution, agar plate assay); format: cell-based
Experimental: as §1, §2

[13] = test system: Enterococcus faecalis; conditions: ref [4],[29]; cited from earlier work
[14] = test system: Methicillin-Resistant S. aureus (MRSA); conditions: ref [4],[29]; cited from earlier work
[15] = test system: Methicillin-Resistant S. aureus (MRSA); assay: MIC and MBC evaluation (broth microdilution, agar plate assay); format: cell-based, Staphylococcus aureus
Experimental: as §1, §2

[16] = test system: Human embryonic kidney-293 (HEK-293); assay: MTT assay for cytotoxicity; format: cell-based
Experimental: as §3, §4, §5

[17] = test system: Human gingival fibroblasts (HGF); assay: MTT assay for cytotoxicity; format: cell-based
Experimental: as §3, §4, §5

[18] = bactericidal if ≤ 4, bacteriostatic if > 4

Penicillin [reference compound]
MBC for S. mutans [1]: 2 µg/mL | MIC for S. mutans [1]: 0.03 µg/mL | MBC/MIC ratio, Streptococcus mutans [1, 18]: 66 | MBC, Streptococcus pyogenes [2]: 0.25 µg/mL | MBC/MIC ratio, S. pyogenes [2]: 3 | MBC, Enterococcus faecalis [3]: 20 µg/mL | MBC/MIC ratio, E. faecalis [3]: 8

Cerastioside A
IC50 [4]: 107 to 198 µM

c1cc2c(cc1[C@H]1OC[C@H]3[C@@H]1CO[C@@H]3c1ccc3c(c1)OCO3)OCO2 [sesamine]
EC50 [5]: 2850 nM

C[C@@H](O)[C@H]1C(=O)N2C(C(=O)O)=C(S[C@@H]3CN[C@H](C(=O)N(C)C)C3)[C@H](C)[C@H]12 [Meropenem, reference compound]
MBC ([6]; Pseudomonas aeruginosa, PAO1): 6.4 µg/mL (≈ 16.7 µM) | MIC ([6]; Pseudomonas aeruginosa, PAO1): 1.6 µg/mL (≈ 4.17 µM)

COc1ccc(C(=O)CCc2c(OC)cc(O)cc2OC)cc1 [4-hydroxy-2,6,4′-trimethoxydihydrochalcone]
EC50 [5]: 1480 nM

Olympiforin A
Maximum tolerated concentration (MTC), CCL-1 [7]: 3.27 µg/mL | IC50, CCL-1 ([7]; MTT assay): 6.13 µg/mL | IC50 ([7]; converted to µM): 12.3 µM | MIC on bacteria, S. aureus [8]: 0.78 µg/mL | Maximum tolerated concentration (MTC), HaCaT [9]: 0.47 µg/mL | IC50, HaCaT ([9]; MTT assay): 1.33 µg/mL | IC50 ([9]; converted to µM): 2.68 µM | Maximum tolerated concentration (MTC), HEPG2 [10]: 2.51 µg/mL | IC50, HEPG2 ([10]; MTT assay): 6.87 µg/mL | IC50 ([10]; converted to µM): 13.8 µM | MIC on bacteria, S. pyogenes [11]: 12.5 µg/mL | MBC, Pseudomonas aeruginosa PAO1 [6]: 2713 µg/mL | MIC, Pseudomonas aeruginosa PAO1 [6]: 1356 µg/mL | Minimal bactericidal concentration (MBC), Staphylococcus aureus [12]: 25 µg/mL | MBC/MIC ratio, S. aureus [12, 18]: 32 | MBC ([12]; read-out: Minimal bactericidal concentration (MBC), Staphylococcus aureus): 50 µM | MBC [2]: 1008 µM | MBC, Streptococcus pyogenes [2]: 500 µg/mL | MBC/MIC ratio, S. pyogenes [2]: 40 | MBC [3]: 252 µM | MBC, Enterococcus faecalis [3]: 125 µg/mL | MBC/MIC ratio, E. faecalis [3]: 10 | MIC on bacteria, E. faecalis [13]: 12.5 µg/mL | MIC on bacteria, MRSA [14]: 12.5 µg/mL | MBC [15]: 171 µM | MBC, Methicillin-Resistant S. aureus (MRSA) [15]: 85 µg/mL | MBC/MIC ratio, MRSA [15, 18]: 7 | Maximum tolerated concentration (MTC), HEK-293 [16]: 0.41 µg/mL | IC50, HEK-293 ([16]; MTT assay): 0.69 µg/mL | IC50 ([16]; converted to µM): 1.39 µM | Maximum tolerated concentration (MTC), HGF [17]: 16.78 µg/mL | IC50, HGF ([17]; MTT assay): 19.44 µg/mL | IC50 ([17]; converted to µM): 39.1 µM
